Among the test systems are COLO 205; HCC 2998; HCT-15; IGROV-1; LXFL 529; M14; Malme-3M; NCI-H226; RPMI-8226; SK-OV-3; SNB-19; SW-620; TK-10; UACC-62; UO-31; Hs-578T; MDA-MB-231; MDA-N; PC-3; SR.
Assay in all cases: growth of human tumour cells (NCI), 48 h

Each structure is given as a SMILES string.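 Compound exposure: 48 hours, 5 concentrations, 96-well plates. GI50 = concentration required for 50% inhibition of growth.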 Calls of active or inactive are those of the source. No stated cut-off is given here; in the data, active = GI50 up to about 1.1 µM and inactive = higher.

Here are results for twelve molecules from ChEMBL document CHEMBL1201862, “PubChem BioAssay data set” (2004).

Consider `CC1(c2ccc(F)cc2)C2C(=O)NC(=O)C1C(=O)NC2=O` (stereo unspecified), for which the GI50 with COLO 205 is > 100 µM (inactive); in the test with HCC 2998, > 100 µM (inactive); in the test with HCT-15, more than 100 µM; with IGROV-1 it was > 100 µM (inactive); in the test on LXFL 529, > 100 µM (inactive); in the test with M14, > 100 µM (inactive). Besides, the GI50 in the test on Malme-3M, in the test on NCI-H226, with RPMI-8226, in the test with SK-OV-3, in the test with SNB-19 and with SW-620 was > 100 µM (inactive) in each case. Further, the GI50 with TK-10, with UACC-62 and with UO-31 was > 100 µM (inactive) each time.
Turning to `CCOP(=O)(OCC)C(C(=O)OC)C(=O)C(=O)Nc1c(C)cc(Br)cc1C` (stereo unspecified), the GI50 was > 100 µM (inactive) in the test with COLO 205; > 100 µM (inactive) in the test on HCC 2998; more than 100 µM with HCT-15; > 100 µM (inactive) in the test on IGROV-1; > 100 µM (inactive) in the test on LXFL 529; > 100 µM (inactive) in the test on M14. Also, the GI50 with Malme-3M, in the test on NCI-H226, in the test on RPMI-8226, in the test on SK-OV-3, in the test on SNB-19 and in the test with SW-620 was > 100 µM (inactive) in each case. The GI50 in the test with TK-10, in the test on UACC-62 and with UO-31 was > 100 µM (inactive) each time.
For the molecule `COCCOCOC(CCCCO)c1cc(C)c(O[Si](C)(C)C(C)(C)C)c(C)c1` (stereo unspecified), the GI50 was 7.71 µM (inactive) with COLO 205; 7.03 µM (inactive) in the test with HCC 2998; 7.36 µM with HCT-15; 12.2 µM (inactive) in the test on IGROV-1; 10.4 µM (inactive) in the test with LXFL 529; 10.3 µM (inactive) in the test with M14. Also, the GI50 in the test on Malme-3M is 2.47 µM (inactive); in the test on NCI-H226, 2.41 µM (inactive); with RPMI-8226, 2.08 µM (inactive); with SK-OV-3 it was 17.6 µM (inactive); with SNB-19 it was 6.35 µM (inactive); in the test on SW-620, 7.31 µM (inactive). In addition, the GI50 was 13.4 µM (inactive) with TK-10, 12.2 µM (inactive) in the test with UACC-62 and 4.11 µM (inactive) in the test on UO-31.
With `CC1=C(C(=O)Nc2cccc(Cl)c2)C(c2ccccc2F)C(C(=O)Nc2cccc(Cl)c2)=C(C)N1`, the GI50 in the test on COLO 205 is 11.2 µM (inactive); in the test with HCC 2998 it was 7.57 µM (inactive); in the test with IGROV-1, 15 µM (inactive); in the test with LXFL 529, 8.11 µM (inactive); in the test with M14 it was 5.33 µM (inactive); in the test with Malme-3M, 15.8 µM (inactive). For the same molecule, the GI50 is 11.3 µM (inactive) with NCI-H226; 2.77 µM (inactive) in the test with RPMI-8226; 21.5 µM (inactive) in the test on SK-OV-3; 19.2 µM (inactive) with SNB-19; 21.6 µM (inactive) in the test with SW-620; 21.5 µM (inactive) in the test on TK-10. The GI50 in the test with UO-31 is 7.94 µM (inactive).
Turning to `C=CC/N=C(\S)Nc1sc2c(c1C(=O)OCC)CC(C)CC2` (stereo unspecified), the GI50 in the test with COLO 205 is 18.6 µM (inactive); with HCC 2998 it was 18.5 µM (inactive); in the test on HCT-15 it was 31.8 µM; in the test with Hs-578T, 36.6 µM (inactive); in the test on IGROV-1, 33.3 µM (inactive); with M14, 24 µM (inactive). The GI50 in the test with MDA-MB-231 was 24.8 µM (inactive); in the test with MDA-N it was 30.5 µM (inactive); in the test with Malme-3M, 21.3 µM (inactive); with NCI-H226, 21.6 µM (inactive); in the test with PC-3 it was 21.1 µM (inactive); with RPMI-8226, 23.1 µM (inactive). For the same molecule, the GI50 in the test on SK-OV-3 is 25.4 µM (inactive); in the test with SNB-19, 26.3 µM (inactive); in the test on SR, 18.9 µM (inactive); with SW-620, 32.8 µM (inactive); in the test with TK-10, 26.3 µM (inactive); in the test on UACC-62, 20.6 µM (inactive). Moreover, the GI50 in the test on UO-31 is 23.7 µM (inactive).
Take `O=C(O)c1ccccc1C(=O)OCC1CCCN2CCCCC12` (stereo unspecified): the GI50 in the test with COLO 205 was > 100 µM (inactive); with HCC 2998, > 100 µM (inactive); in the test with HCT-15, more than 100 µM; with Hs-578T it was > 100 µM (inactive); with IGROV-1 it was > 100 µM (inactive); in the test with M14 it was > 100 µM (inactive). For the same molecule, the GI50 with MDA-MB-231, in the test on MDA-N, in the test on Malme-3M, in the test on NCI-H226, in the test on PC-3 and in the test with RPMI-8226 was > 100 µM (inactive) each time. Further, the GI50 in the test with SK-OV-3, in the test on SNB-19, with SR, in the test on SW-620, in the test with TK-10 and in the test on UACC-62 was > 100 µM (inactive) each time. Also, in the test with UO-31, the GI50 was > 100 µM (inactive).
As for `O=C(O)CNS(=O)(=O)c1ccc(NCc2ccccc2)cc1`, the GI50 is > 100 µM (inactive) in the test with COLO 205; > 100 µM (inactive) in the test with HCC 2998; more than 100 µM in the test on HCT-15; > 100 µM (inactive) in the test with IGROV-1; > 100 µM (inactive) in the test with LXFL 529; > 100 µM (inactive) with M14. The GI50 in the test with Malme-3M, with NCI-H226, in the test on RPMI-8226, in the test with SK-OV-3, in the test with SNB-19 and in the test on SW-620 was > 100 µM (inactive) in each case. The GI50 in the test on TK-10, with UACC-62 and with UO-31 was > 100 µM (inactive) throughout.
Consider `NC(=O)C(Nc1c(Cl)cccc1Cl)c1cc2cc(Br)ccc2nc1Cl` (stereo unspecified), for which the GI50 with COLO 205 was 24.4 µM (inactive); in the test on HCC 2998 it was 44.8 µM (inactive); in the test on HCT-15, 24.4 µM; with Hs-578T, 85.3 µM (inactive); in the test on IGROV-1 it was 28.1 µM (inactive); in the test with M14 it was 33 µM (inactive). Further, the GI50 was 44.1 µM (inactive) in the test with MDA-MB-231; 27.6 µM (inactive) with MDA-N; > 100 µM (inactive) in the test on Malme-3M; 45.5 µM (inactive) with NCI-H226; 38.9 µM (inactive) in the test on PC-3; 31.5 µM (inactive) in the test with RPMI-8226. The GI50 with SK-OV-3 was > 100 µM (inactive); in the test with SNB-19, 74.3 µM (inactive); in the test on SR, 12.2 µM (inactive); with SW-620, 37.6 µM (inactive); in the test with TK-10, 34.6 µM (inactive); in the test on UACC-62, 44.1 µM (inactive). Further, the GI50 in the test with UO-31 was 55 µM (inactive).
Take `COC(=O)c1c(C)nc(C)c(NO)c1-c1ccccc1C(F)(F)F`: the GI50 in the test with COLO 205 was 27.1 µM (inactive); with HCC 2998, > 100 µM (inactive); with HCT-15, 16.1 µM; with Hs-578T, 62.4 µM (inactive); with IGROV-1, 18.8 µM (inactive); in the test with M14 it was 19 µM (inactive). For the same molecule, the GI50 in the test on MDA-MB-231 was 13.8 µM (inactive); in the test with MDA-N, 16.8 µM (inactive); in the test with Malme-3M, 16.9 µM (inactive); with NCI-H226 it was 20.2 µM (inactive); in the test with PC-3 it was 70.5 µM (inactive); with RPMI-8226, 15.1 µM (inactive). Moreover, the GI50 is > 100 µM (inactive) with SK-OV-3; > 100 µM (inactive) with SNB-19; 30.2 µM (inactive) in the test with SR; 16 µM (inactive) with SW-620; 17.1 µM (inactive) with TK-10; 64.9 µM (inactive) in the test with UACC-62. Besides, the GI50 in the test on UO-31 was 29.5 µM (inactive).
As for `C1COC(NC(C2CC2)C2CC2)=N1` [RILMENIDINE], the GI50 is > 100 µM (inactive) in the test on COLO 205; > 100 µM (inactive) in the test on HCC 2998; more than 100 µM with HCT-15; > 100 µM (inactive) in the test with Hs-578T; > 100 µM (inactive) with IGROV-1; > 100 µM (inactive) in the test on M14. Besides, the GI50 with MDA-MB-231, in the test on MDA-N, in the test on Malme-3M, in the test with NCI-H226, in the test on PC-3 and in the test on RPMI-8226 was > 100 µM (inactive) throughout. Also, the GI50 in the test with SK-OV-3, in the test on SNB-19, in the test with SR, in the test on SW-620, with TK-10 and in the test with UACC-62 was > 100 µM (inactive) each time. Also, the GI50 in the test with UO-31 is > 100 µM (inactive).
Take `C#CCN(N=O)C(=O)NC(CCCCNC(=O)OCc1ccccc1)C(=O)OCc1ccccc1` (stereo unspecified): the GI50 is 28.5 µM (inactive) in the test with COLO 205; 31.5 µM (inactive) in the test with HCC 2998; 20.8 µM in the test on HCT-15; > 100 µM (inactive) with IGROV-1; 17 µM (inactive) in the test with LXFL 529; 21.4 µM (inactive) in the test with M14. Besides, the GI50 in the test with Malme-3M is 28.2 µM (inactive); in the test on RPMI-8226 it was 18.7 µM (inactive); in the test on SK-OV-3, > 100 µM (inactive); with SNB-19, 47.2 µM (inactive); in the test with SW-620, 23.3 µM (inactive); with TK-10 it was 27.7 µM (inactive). The GI50 in the test with UACC-62 was 32.7 µM (inactive); with UO-31, 30.8 µM (inactive).
For the molecule `Cc1nc2ccccc2nc1-c1ccc(/N=[N+](\[O-])c2ccc(-c3nc4ccccc4nc3C)cc2)cc1`, the GI50 was > 100 µM (inactive) with COLO 205; > 100 µM (inactive) in the test on HCC 2998; more than 100 µM in the test on HCT-15; 27.5 µM (inactive) with Hs-578T; > 82.4 µM (inactive) in the test on IGROV-1; > 96.2 µM (inactive) in the test on M14. Besides, the GI50 in the test with MDA-MB-231 is 24.2 µM (inactive); in the test on MDA-N, > 100 µM (inactive); in the test on Malme-3M it was 42.4 µM (inactive); in the test on NCI-H226, > 74.8 µM (inactive); in the test on PC-3, > 100 µM (inactive); in the test with RPMI-8226, > 100 µM (inactive). In addition, the GI50 in the test with SK-OV-3 was 30.8 µM (inactive); in the test on SNB-19, 48.8 µM (inactive); in the test with SR, > 100 µM (inactive); in the test with SW-620, > 100 µM (inactive); in the test with TK-10, 20.1 µM (inactive); in the test with UACC-62, > 93.5 µM (inactive). The GI50 in the test on UO-31 is > 81.3 µM (inactive).
